Measured values from patent US20100210682A1, “Repeated Dosing of TRPV1 Antagonists” (ABBOTT LABORATORIES, priority 2009, published 2010).
Where two headings read alike, the source gives them in different places.

Tests used:
[1] = test system: bone cancer pain, C3H/HeJ mice; assay: Bone cancer pain model in mice (2472 sarcoma); format: in vivo; details: mouse
Description: Male Sprague-Dawley rats (Charles River, Wilmington, Mass.) weighing 200-300 grams were utilized in most experiments. Animals were group housed in AAALAC approved facilities at Abbott Laboratories in a temperature-regulated environment with lights on between 0700 and 2000 h. Food and water were available ad libitum except during testing. All animal handling and experimental protocols were approved by an Institutional Animal Care and Use Committee (IACUC). All experiments were performed during the light cycle. The bone cancer pain experiments were performed on adult male C3H/HeJ mice (Jackson Laboratories, Bar Harbor, Me.), approximately 7-8 weeks old, weighing 25-30 g at the time of tumor cell injection. The mice were housed in accordance with National Institutes of Health Guidelines and kept in a vivarium maintained at 22° C. with a 12 h alternating light-dark cycle. They were given food and water ad libitum except during testing. All procedures were approved by the Institutional Animal Care and Use Committee at the University of Minnesota. All procedures also adhered to the guidelines of the Committee for Research and Ethical Issues of IASP published in PAIN, 16 (1983) 109-110.
An arthrotomy was performed following induction of general anesthesia with sodium pentobarbital (50 mg/kg, intraperitoneal (i.p.)). A needle was inserted into the intramedullary canal to create a pathway for the sarcoma cells. A depression was then made using a pneumatic dental high-speed hand-piece. Mice were injected with Hanks-buffered saline (HBSS) (20 μL, Sigma, St. Louis, Mo.) or HBSS containing the 2472 sarcoma line (ATCC, Rockville, Md., USA). The injection site was sealed with a dental amalgam plug to confine the cells within the intramedullary canal followed by irrigation with sterile water. […] Clips were removed at day 5 so as not to interfere with behavioral testing.
A variety of behavioral measurements was used to assess the extent of bone cancer pain as described previously [Schwei M J, Honore P, Rogers S D, Salak-Johnson J L, Finke M P, Ramnaraine M L, et al. Neurochemical and cellular reorganization of the spinal cord in a murine model of bone cancer pain. J Neurosci 1999; 19:10886-97]. All mice were tested and values obtained for behavioral responses before compound or vehicle administration, and then retested 1 hour following oral dosing. Percent effects were calculated as follows: (1−((Compound Value−Sham Value)/(Vehicle Value−Sham Value)))×100. The number of spontaneous guarding behaviors, representative of nociceptive behavior, was recorded during a 2 min observation period. Guarding was defined as the amount of time an animal held the hind paw aloft while not ambulatory. Mechanical allodynia at the knee joint was evaluated by normally non-noxious palpation of the distal femur every second for 2 min. Following the 2 min palpation, the mice were placed in the observation box and their palpation-induced guarding behavior was measured for an additional 2 min. Normal limb use during spontaneous ambulation in an open field was scored on a scale of 5-0: (5) normal use, (4) some limping, but not pronounced, (3) pronounced limp, (2) limp and guarding behavior, (1) partial non-use of limb, and (0) complete lack of limb use.
(§1) Compound A was dissolved in 100% polyethylene glycol (PEG 400) for oral administration in a 2 mL/kg injection volume. Compounds B, C, and D were dissolved in 10% ethanol, 20% Tween 80 and 70% polyethylene glycol-400 for oral administration in a 2 mL/kg injection volume. All compounds were dosed orally (p.o.) 60 minutes before behavioral testing.

[2] = molecular target: TRPV1 receptor (Homo sapiens, UniProt Q8NER1); assay: Block of TRPV1 receptor activation by capsaicin in vitro; format: biochemical
Sequence of TRPV1 receptor (Q8NER1 whole entry): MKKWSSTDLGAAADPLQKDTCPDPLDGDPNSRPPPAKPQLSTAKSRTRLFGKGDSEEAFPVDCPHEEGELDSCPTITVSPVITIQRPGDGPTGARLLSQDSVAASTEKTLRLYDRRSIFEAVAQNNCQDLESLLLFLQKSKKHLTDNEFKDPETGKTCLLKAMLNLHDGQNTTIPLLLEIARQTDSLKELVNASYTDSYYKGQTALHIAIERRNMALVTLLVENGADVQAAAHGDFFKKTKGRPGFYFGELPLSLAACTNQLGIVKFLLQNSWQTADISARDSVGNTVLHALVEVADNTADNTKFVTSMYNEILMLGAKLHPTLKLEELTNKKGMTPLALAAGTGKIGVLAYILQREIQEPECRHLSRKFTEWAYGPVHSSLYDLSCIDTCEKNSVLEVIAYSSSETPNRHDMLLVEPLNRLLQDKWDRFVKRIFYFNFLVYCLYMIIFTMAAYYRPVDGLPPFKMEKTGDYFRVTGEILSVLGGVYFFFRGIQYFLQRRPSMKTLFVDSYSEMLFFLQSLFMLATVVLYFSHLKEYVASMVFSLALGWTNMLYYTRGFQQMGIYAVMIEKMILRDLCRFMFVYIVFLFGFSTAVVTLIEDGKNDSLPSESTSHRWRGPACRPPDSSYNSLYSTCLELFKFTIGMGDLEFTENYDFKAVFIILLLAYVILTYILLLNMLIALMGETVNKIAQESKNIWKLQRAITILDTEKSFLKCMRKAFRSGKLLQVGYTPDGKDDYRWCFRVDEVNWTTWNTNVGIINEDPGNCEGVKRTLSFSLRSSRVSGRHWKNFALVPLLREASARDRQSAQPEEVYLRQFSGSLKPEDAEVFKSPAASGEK

[3] = test system: MIA-induced osteoarthritic rats; assay: Osteoarthritic pain model in rats (MIA), hind limb grip force; format: in vivo, rat; details: for ED50: po, p.o., acute dosing
Description: Unilateral knee joint osteoarthritis was induced in the rats by a single intraarticular (i.a.) injection of sodium monoiodoacetate (MIA) (Sigma, St. Louis, Mo.) (3 mg in 0.05 mL sterile isotonic saline) into the joint cavity using a 26 G needle under light (2-4%) halothane (Halocarbon Laboratories, River Edge, N.J.) anesthesia [Bove S E, Calcaterra S L, Brooker R M, Huber C M, Guzman R E, Juneau P L, et al. Weight bearing as a measure of disease progression and efficacy of anti-inflammatory compounds in a model of monosodium iodoacetate-induced osteoarthritis. Osteoarthritis Cartilage 2003; 11:821-30]. Following injection, the animals were allowed to recover from the effects of anesthesia (usually 5-10 min) before returning them to their home cages.
MIA-induced nociception can be assessed by measuring differences in weight bearing (WBD) or decrease in grip force (GF) several days to weeks following MIA injection [Bove S E, Calcaterra S L, Brooker R M, Huber C M, Guzman R E, Juneau P L, et al. Weight bearing as a measure of disease progression and efficacy of anti-inflammatory compounds in a model of monosodium iodoacetate-induced osteoarthritis. Osteoarthritis Cartilage 2003; 11:821-30; Fernihough J, Gentry C, Malcangio M, Fox A, Rediske J, Pellas T, et al. Pain related behaviour in two models of osteoarthritis in the rat knee. Pain 2004; 112:83-93].
In addition to weight-bearing differences, grip strength was also assessed in osteoarthritic rats approximately 21 days after MIA injection. Measurements of peak hind limb grip force were conducted by recording the maximum compressive force exerted on the hind limb strain gauge setup, in a commercially available grip force measurement system (Columbus Instruments, Columbus, Ohio). During testing, each rat was gently restrained by grasping around its rib cage and then allowed to grasp the wire mesh frame (10-12 cm^2) attached to the strain gauge. The experimenter then moved the animal in a rostral-to-caudal direction until the grip was broken. Each rat was sequentially tested twice at an approximately 2 min interval to obtain a raw mean grip force […]. These raw mean grip force data were in turn converted to a maximum hind limb compressive force (CFmax) (gram force)/kg body weight for each animal. A group of age-matched naïve animals was added to each experiment and the data obtained from the different dose groups for the compound being tested were compared to the naïve group.
as §1
In the osteoarthritic pain model, animals were dosed twice-daily for 12 days using a dose that was non-efficacious following a single administration (e.g. 3 μmol/kg p.o. for Compound A). The animals were tested 1 hour after acute dosing (p.o.) and on day 12, 1 hour after oral dosing with either vehicle or the test compound.
The analgesic responses were shown as % effect relative to the healthy, untreated rats (naïve group).

[4] = 30 μmol/kg p.o., acute dosing, fifteen days following tumor cells inoculation

SMILES: CC(C)(C)c1ccc2c(c1)CC[C@H]2NC(=O)Nc1cccc2[nH]ncc12 [Compound A, N-[(1R)-5-tert-butyl-2,3-dihydro-1H-inden-1-yl]-N′-1H-indazol-4-ylurea]
- reversal of spontaneous guarding ([1]; 10 μmol/kg p.o. twice-daily for 9 days): 45±3%
- reversal of evoked pain induced by palpation of the cancerous limb (% effects) ([1]; 30 μmol/kg p.o., acute dosing): 65±4%
- reversal of spontaneous guarding [1, 4]: 70±1%
- reversal of the pain-induced decrease in ambulation [1, 4]: 85±15%
- evoked pain induced by palpation of the cancerous limb, repeated vs single dosing ([1]; repeated dosing): Improved analgesic efficacy
- effect on spontaneous ambulation ([1]; repeated dosing (10 μmol/kg p.o. twice-daily for 9 days)): 43±0%
- analgesic effect on spontaneous ambulation ([1]; single dose 10 μmol/kg p.o.): 19±0%
- analgesic effect on spontaneous guarding ([1]; single dose 10 μmol/kg p.o.): 18±6%
- ability to block TRPV1 receptor activation by capsaicin in vitro [2]: potent
- ED50 ([3]; Rattus norvegicus, grip force, MIA-induced osteoarthritic rats, read-out: Acute ED50 (μmol/kg; 95% Cl)): 8 µmol/kg
- % Efficacy at Reduced Dose, Chronic (BID, 12 days) ([3]; grip force, 3 μmol/kg p.o. BID 12 days, relative to naïve group): 62%
- % Efficacy at Reduced Dose, Acute ([3]; grip force, 3 μmol/kg p.o., 1 hour after acute dosing, relative to naïve group): 20%
- analgesic effects following repeated dosing vs acute dosing ([3]; grip force, BID 12 days, reduced dose): significantly increased
- ED50 ([3]; 480 h, rat, 20 days following MIA injection, read-out: ED50, reversal of decrease in grip force): 10 µmol/kg
